From patent publication US8431556B2, “C-21-keto lupane derivatives preparation and use thereof” (Vertex Pharmaceuticals Incorporated, priority 2008, dated 2013)

Test system: HIV-1 (HIVIIIB)
Experiment: HIV-1 replication in MT2 cell line with and without 30% human serum (viral RT activity in supernatant)
Type: cell-based
Settings: Human immunodeficiency virus 1, MT2, MT-2 cells, with 30% human serum, average IC50 if tested more than once, read-out: MT-2 (HIVIIIB) with 30% HS IC50 range
Description: HIV-1 Replication in MT2 cell line with and without 30% human serum: The cells are infected at a Multiciplicity of Infection (MOI) of 0.5 for 3 h and then washed twice with complete media to remove residual virus. Cells are then resuspended at 0.5×10^6/ml in complete medium (RPMI, 10% FBS, 1% sodium pyruvate), and seeded into 96-well plates (6.25×10^4/well). The cells are cultured in the presence or absence of various concentrations of test compounds in serial dilutions for 3 days at 37° C. The test compounds are serially diluted in complete medium supplemented or not with 30% human serum. After 3 days, 100 μL of cultured medium with cells are replaced with 120 μL of freshly diluted test compounds in complete medium containing or not 30% Human serum. The level of HIV-1 replication is determined at days 5 after infection by the presence of viral RT activity in harvested supernatant fluid. The IC50 and IC90 values for the virus replication are determined by using GRAPHPAD PRISM software.
The IC50 of the compounds tested in accordance with the HIV replication activity assay MT-2 (HIVIIIB) are represented in Table 4 (without HS) and Table 5 (with 30% HS)

Structure (SMILES) | IC50
Cc1ccc(NC(=O)[C@@]23CC[C@]4(C)[C@H](CC[C@@H]5[C@@]6(C)CC[C@H](OC(=O)CC(C)(C)C(=O)O)C(C)(C)[C@@H]6CC[C@]54C)C2=C(C(C)C)C(=O)C3)cc1 [9-49, 3β-O-(3′,3′-Dimethylsuccinyl)-21-oxolup-18-en-28-oic acid N-4-methyl-phen-1-yl acetamide] | < 199 nM
CC(C)C1=C2[C@H]3CC[C@@H]4[C@@]5(C)CC[C@H](OC(=O)CC(C)(C)C(=O)O)C(C)(C)[C@@H]5CC[C@@]4(C)[C@]3(C)CC[C@@]2(C(=O)N2CCCCC2)CC1=O [9-6, 3β-O-(3′,3′-Dimethylsuccinyl)-21-oxolup-18-en-28-oic acid N-piperidinyl acetamide] | < 199 nM
CC(C)C1=C2[C@H]3CC[C@@H]4[C@@]5(C)CC[C@H](OC(=O)CC(C)(C)C(=O)O)C(C)(C)[C@@H]5CC[C@@]4(C)[C@]3(C)CC[C@@]2(C(=O)Nc2cnc3ccccc3c2)CC1=O [9-60, 3β-O-(3′,3′-Dimethylsuccinyl)-21-oxolup-18-en-28-oic acid N-quinolin-3-yl-acetamide] | < 199 nM
CC(C)C1=C2[C@H]3CC[C@@H]4[C@@]5(C)CC[C@H](OC(=O)CC(C)(C)C(=O)O)C(C)(C)[C@@H]5CC[C@@]4(C)[C@]3(C)CC[C@@]2(C(=O)Nc2cnn(C)c2)CC1=O [9-57, 3β-O-(3′,3′-Dimethylsuccinyl)-21-oxolup-18-en-28-oic acid N-4-amino-1-methyl-1H-pyrazole acetamide] | < 199 nM
CC(C)C1=C2C3CCC4[C@@]5(C)CC[C@H](OC(=O)CC(C)(C)C(=O)O)C(C)(C)C5CC[C@@]4(C)[C@]3(C)CC[C@@]2(C(=O)Nc2ccccc2C(C)C)CC1=O (stereo partly drawn) [9-87, 3β-O-(3′,3′-Dimethylsuccinyl)-21-oxolup-18-en-28-oic acid N-2-isopropyl-phen-1-yl acetamide] | 200 to 999 nM
CC(=O)NCCNC(=O)[C@@]12CC[C@]3(C)[C@H](CC[C@@H]4[C@@]5(C)CC[C@H](OC(=O)CC(C)(C)C(=O)O)C(C)(C)[C@@H]5CC[C@]43C)C1=C(C(C)C)C(=O)C2 [9-22, 3β-O-(3′,3′-Dimethylsuccinyl)-21-oxolup-18-en-28-oic acid N-(2-acetylamino-ethyl)-acetamide] | < 199 nM
CC(C)C1=C2[C@H]3CC[C@@H]4[C@@]5(C)CC[C@H](OC(=O)CC(C)(C)C(=O)O)C(C)(C)[C@@H]5CC[C@@]4(C)[C@]3(C)CC[C@@]2(C(=O)Nc2ccncc2)CC1=O [9-52, 3β-O-(3′,3′-Dimethylsuccinyl)-21-oxolup-18-en-28-oic acid N-pyridin-4-yl-acetamide] | < 199 nM
COC(=O)NC1CCN(C(=O)[C@@]23CC[C@]4(C)[C@H](CC[C@@H]5[C@@]6(C)CC[C@H](OC(=O)CC(C)(C)C(=O)O)C(C)(C)[C@@H]6CC[C@]54C)C2=C(C(C)C)C(=O)C3)CC1 [9-45, 3β-O-(3′,3′-Dimethylsuccinyl)-21-oxolup-18-en-28-oic acid N-(4-aminocarboxylic acid methyl ester-1-piperidine)-acetamide] | < 199 nM
COc1ccc(CNC(=O)[C@@]23CC[C@]4(C)[C@H](CC[C@@H]5[C@@]6(C)CC[C@H](OC(=O)CC(C)(C)C(=O)O)C(C)(C)[C@@H]6CC[C@]54C)C2=C(C(C)C)C(=O)C3)cc1 [9-15, 3β-O-(3′,3′-Dimethylsuccinyl)-21-oxolup-18-en-28-oic acid N-4-methoxy-benzylamide] | < 199 nM

Same assay, conditions: Human immunodeficiency virus 1, MT2, MT-2 cells, without HS, average IC50 if tested more than once, read-out: MT-2 (HIVIIIB) IC50 range

Structure (SMILES) | IC50
CC(C)NC(=O)[C@@]12CC[C@]3(C)[C@H](CC[C@@H]4[C@@]5(C)CC[C@H](OC(=O)CC(C)(C)C(=O)O)C(C)(C)[C@@H]5CC[C@]43C)C1=C(C(C)C)C(=O)C2 [9-3, 3β-O-(3′,3′-Dimethylsuccinyl)-21-oxolup-18-en-28-oic acid N-isopropylamide] | < 199 nM
CNC(=O)[C@@]12CC[C@]3(C)[C@H](CC[C@@H]4[C@@]5(C)CC[C@H](OC(=O)CC(C)(C)C(=O)O)C(C)(C)[C@@H]5CC[C@]43C)C1=C(C(C)C)C(=O)C2 [9-2, 3β-O-(3′,3′-Dimethylsuccinyl)-21-oxolup-18-en-28-oic acid N-methylamide] | < 199 nM
